The test system of this test is spontaneously beating right atrium. Briefly: Effect of compounds on the spontaneous beating rate of the right atrium in the rat.
Setting [1] is: concentration that reduces the initial spontaneous beating rate by 30%, isolated right atrium of male WISTAR rats, 35° C., compound added cumulatively every 15 minutes (4 concentrations), read-out: IC30.
[2] abbreviates: Rattus norvegicus, 0.25 h, concentration that reduces the initial spontaneous beating rate by 30%, isolated right atrium of male WISTAR rats, 35° C., compound added cumulatively every 15 minutes (4 concentrations), read-out: IC30.

The term IC30 denotes the concentration at which the effect reaches the 30% level.

Structures can show the parent of a compound that is named as a salt. Where two headings read alike, the source gives them in different places.

Description: Male WISTAR rats weighing from 325 to 375 g are anaesthetised by ip injection of pentobarbital sodium (30 mg/kg). The heart is rapidly excised and placed in a physiological solution at 4° C. which contains (in mM): NaCl 120.3, KCl 4.8, CaCl2 2.5, KH2PO4 1.0, MgSO4 1.3, NaHCO3 24.2, glucose 11.1, Ca-EDTA 0.016, and which is oxygenated (carbogene 95% O2+5% CO2), pH 7.4. The right atrium (RA), which beats spontaneously, is isolated, placed in a basin, thermostatically controlled at 35° C., containing 20 ml of physiological solution and connected to an isometric tension sensor (model IT-25, EMKA Technologies, Paris, France). The initial tension is set at 0.4 g. The spontaneous beating rate is measured by IOX software (EMKA Technologies, Paris, France). Preparations whose spontaneous beating rate is not between 200 and 300 beats per minute are excluded.
The compounds are dissolved daily at 10^−2M. The following dilutions are stored in ice over the duration of the experiment.
After stabilisation for 30 minutes, the compound under test is added to the medium in cumulative manner every 15 minutes (4 concentrations). The reductions in beating rate are expressed as a percentage relative to the initial rate. The concentration that reduces the initial beating rate by 30% (IC30) is calculated and expressed in terms of molarity (μM).

With “7-({[3-(7,8-Dimethoxy-1,2,4,5-tetrahydro-3H-3-benzazepin-3-yl)-3-oxopropyl](methyl)amino}methyl)bicyclo[4.2.0]octa-1,3,5-trien-3-yl hexahydrocyclopenta[c]pyrrole-2(1H)-carboxylate (cis compound) [Example 78]”, under setting [1], the IC30 came to 2.0 µM. Consider `COc1cc2c(cc1OC)CCN(C(=O)CCN(C)CC1Cc3cc(OC(=O)N(C)C)ccc31)CC2.Cl` (single isomer, unassigned; (-)) [Example 48, (−) enantiomer of 7-{[[3-(7,8-dimethoxy-1,2,4,5-tetrahydro-3H-3-benzazepin-3-yl)-3-oxopropyl](methyl)amino]methyl}bicyclo[4.2.0]octa-1,3,5-trien-3-yl dimethylcarbamate hydrochloride], for which the IC30 under setting [1] was 0.5 µM. With `COc1cc2c(cc1OC)CCN(C(=O)CCN(C)C[C@H]1Cc3cc(OC)c(OC)cc31)CC2` [Example 3a, N-{[(7S)-3,4-Dimethoxybicyclo[4.2.0]octa-1,3,5-trien-7-yl]methyl}-3-(7,8-dimethoxy-1,2,4,5-tetrahydro-3H-3-benzazepin-3-yl)-N-methyl-3-oxopropan-1-amine hydrochloride], under setting [2], the IC30 stood at 1.3 µM. Same read-out and setting: with `COc1cc2c(cc1OC)CCN(C(=O)CCNC[C@H]1Cc3cc(OC)c(OC)cc31)CC2` [Example 4, N-{[(7S)-3,4-Dimethoxybicyclo[4.2.0]octa-1,3,5-trien-7-yl]methyl}-3-(7,8-dimethoxy-1,2,4,5-tetrahydro-3H-3-benzazepin-3-yl)-3-oxopropan-1-amine hydrochloride] the figure was 1.4 µM; with `COc1cc2c(cc1OC)CCN(C(=O)CCN(C)CC1Cc3cc(OC)c(OC)cc3C1)CC2` [Example 7, N-[(5,6-Dimethoxy-2,3-dihydro-1H-inden-2-yl)methyl]-3-(7,8-dimethoxy-1,2,4,5-tetrahydro-3H-3-benzazepin-3-yl)-N-methyl-3-oxopropan-1-amine hydrochloride], 1.7 µM; with `CCOc1ccc2c(c1)CC2CNCCC(=O)N1CCc2cc(OC)c(OC)cc2CC1` (stereo not shown) [Example 14, 3-(7,8-Dimethoxy-1,2,4,5-tetrahydro-3H-3-benzazepin-3-yl)-N-[(3-ethoxybicyclo[4.2.0]octa-1,3,5-trien-7-yl)methyl]-3-oxopropan-1-amine hydrochloride], 1 µM. Same read-out and setting: the same measure for `COc1cc2c(cc1OC)CCN(C(=O)CCN(CC1CC1)C[C@H]1Cc3cc(OC)c(OC)cc31)CC2` [Example 22, N-(Cyclopropylmethyl)-N-{[(7S)-3,4-dimethoxybicyclo[4.2.0]octa-1,3,5-trien-7-yl]methyl}-3-(7,8-dimethoxy-1,2,4,5-tetrahydro-3H-3-benzazepin-3-yl)-3-oxopropan-1-amine hydrochloride]: 0.8 µM; for `C=CCN(CCC(=O)N1CCc2cc(OC)c(OC)cc2CC1)C[C@H]1Cc2cc(OC)c(OC)cc21` [Example 23, N-Allyl-N-{[(7S)-3,4-dimethoxybicyclo[4.2.0]octa-1,3,5-trien-7-yl]methyl}-3-(7,8-dimethoxy-1,2,4,5-tetrahydro-3H-3-benzazepin-3-yl)-3-oxopropan-1-amine hydrochloride]: 1.4 µM; for `COc1cc2c(cc1OC)CCN(C(=O)CCN(C[C@H]1Cc3cc(OC)c(OC)cc31)C1CCCC1)CC2` [Example 27, N-Cyclopentyl-N-{[(7S)-3,4-dimethoxybicyclo[4.2.0]octa-1,3,5-trien-7-yl]methyl}-3-(7,8-dimethoxy-1,2,4,5-tetrahydro-3H-3-benzazepin-3-yl)-3-oxopropan-1-amine fumarate]: 1.2 µM.

On to `COc1cc2c(cc1OC)CCN(C(=O)CCN(CC1CCCC1)C[C@H]1Cc3cc(OC)c(OC)cc31)CC2` [Example 28, N-(Cyclopentylmethyl)-N-{[(7S)-3,4-dimethoxybicyclo[4.2.0]octa-1,3,5-trien-7-yl]methyl}-3-(7,8-dimethoxy-1,2,4,5-tetrahydro-3H-3-benzazepin-3-yl)-3-oxopropan-1-amine hydrochloride], for which the 30% effect concentration (IC30) under setting [2] was found to be 1.2 µM. On the same count and under the same terms, with `COc1cc2c(cc1OC)CCN(C(=O)CCN(CC1CCC1)C[C@H]1Cc3cc(OC)c(OC)cc31)CC2` [Example 29, N-(Cyclobutylmethyl)-N-{[(7S)-3,4-dimethoxybicyclo[4.2.0]octa-1,3,5-trien-7-yl]methyl}-3-(7,8-dimethoxy-1,2,4,5-tetrahydro-3H-3-benzazepin-3-yl)-3-oxopropan-1-amine fumarate] the figure was 0.4 µM; with `COc1ccc2c(c1)CCN(C(=O)CCN(C)C[C@H]1Cc3cc(OC)c(OC)cc31)CC2` [Example 34, N-{[(7S)-3,4-Dimethoxybicyclo[4.2.0]octa-1,3,5-trien-7-yl]methyl}-3-(7-methoxy-1,2,4,5-tetrahydro-3H-3-benzazepin-3-yl)-N-methyl-3-oxopropan-1-amine hydrochloride], 1.3 µM.

For the compound `CNC(=O)Oc1ccc2c(c1)CC2CN(C)CCC(=O)N1CCc2cc(OC)c(OC)cc2CC1` (stereo not shown) [Example 44, 7-{[[3-(7,8-Dimethoxy-1,2,4,5-tetrahydro-3H-3-benzazepin-3-yl)-3-oxopropyl](methyl)amino]methyl}bicyclo[4.2.0]octa-1,3,5-trien-3-yl methylcarbamate hydrochloride], the 30% effect level (Rattus norvegicus, 0.25 h) (IC30) was put at 0.8 µM. The same measure, in the same setting: with `CNC(=O)Oc1ccc2c(c1)C(CN(C)CCC(=O)N1CCc3cc(OC)c(OC)cc3CC1)C2` (stereo not shown) [Example 46, 8-{[[3-(7,8-Dimethoxy-1,2,4,5-tetrahydro-3H-3-benzazepin-3-yl)-3-oxopropyl](methyl)amino]methyl}bicyclo[4.2.0]octa-1,3,5-trien-3-yl methylcarbamate hydrochloride] the figure was 0.5 µM; with `COc1cc2c(cc1OC)CCN(C(=O)CCN(C)CC1Cc3cc(OC(=O)N(C)C)ccc31)CC2` (stereo not shown) [Example 47, 7-{[[3-(7,8-Dimethoxy-1,2,4,5-tetrahydro-3H-3-benzazepin-3-yl)-3-oxopropyl](methyl)amino]methyl}bicyclo[4.2.0]octa-1,3,5-trien-3-yl dimethylcarbamate hydrochloride], 0.6 µM; with `COc1cc2c(cc1OC)CCN(C(=O)CCN(C)CC1Cc3ccc(OC(=O)N(C)C)cc31)CC2` (stereo not shown) [Example 50, 8-{[[3-(7,8-Dimethoxy-1,2,4,5-tetrahydro-3H-3-benzazepin-3-yl)-3-oxopropyl](methyl)amino]methyl}bicyclo[4.2.0]octa-1,3,5-trien-3-yl dimethylcarbamate hydrochloride], 0.5 µM. Still for that read-out and setting: with `COc1cc2c(cc1OC)CCN(C(=O)CCNCC1Cc3ccc(OC(=O)N(C)C)cc31)CC2` (stereo not shown) [Example 53, 8-{[[3-(7,8-Dimethoxy-1,2,4,5-tetrahydro-3H-3-benzazepin-3-yl)-3-oxopropyl]amino]methyl}bicyclo[4.2.0]octa-1,3,5-trien-3-yl dimethylcarbamate hydrochloride] the figure was 1.8 µM; with `COc1cc2c(cc1OC)CCN(C(=O)CCNCC1Cc3cc(OC(=O)N(C)C)ccc31)CC2` (stereo not shown) [Example 54, 7-{[[3-(7,8-Dimethoxy-1,2,4,5-tetrahydro-3H-3-benzazepin-3-yl)-3-oxopropyl]amino]methyl}bicyclo[4.2.0]octa-1,3,5-trien-3-yl dimethylcarbamate hydrochloride], 0.8 µM; with `CCN(CC)C(=O)Oc1ccc2c(c1)CC2CN(C)CCC(=O)N1CCc2cc(OC)c(OC)cc2CC1` (stereo not shown) [Example 71, 7-{[[3-(7,8-Dimethoxy-1,2,4,5-tetrahydro-3H-3-benzazepin-3-yl)-3-oxopropyl](methyl)amino]methyl}bicyclo[4.2.0]octa-1,3,5-trien-3-yl diethylcarbamate hydrochloride], 1.8 µM. On the same count and under the same terms, with `COc1cc2c(cc1OC)CCN(C(=O)CCN(C)CC1Cc3cc(OC(=O)N4CCCC4)ccc31)CC2` (stereo not shown) [Example 73, 7-{[[3-(7,8-Dimethoxy-1,2,4,5-tetrahydro-3H-3-benzazepin-3-yl)-3-oxopropyl](methyl)amino]methyl}bicyclo[4.2.0]octa-1,3,5-trien-3-yl 1-pyrrolidinecarboxylate hydrochloride] the figure was 2.4 µM. `COc1cc2c(cc1C)C(CN(C)CCC(=O)N1CCc3cc(OC)c(OC)cc3CC1)C2` (stereo not shown) [Example 74, 3-(7,8-Dimethoxy-1,2,4,5-tetrahydro-3H-3-benzazepin-3-yl)-N-{[3-methoxy-4-methyl-bicyclo[4.2.0]octa-1,3,5-trien-7-yl]methyl}-N-methyl-3-oxopropan-1-amine hydrochloride]: the IC30 under setting [2] was found to be 1 µM.

As for `COc1cc2c(cc1C)CC2CN(C)CCC(=O)N1CCc2cc(OC)c(OC)cc2CC1` (stereo not shown) [Example 76, 3-(7,8-Dimethoxy-1,2,4,5-tetrahydro-3H-3-benzazepin-3-yl)-N-{[4-methoxy-3-methyl-bicyclo[4.2.0]octa-1,3,5-trien-7-yl]methyl}-N-methyl-3-oxopropan-1-amine hydrochloride], the IC30 under setting [2] stood at 1.6 µM.

These data come from US8076325B2, “1,2,4,5-tetrahydro-3H-benzazepine compounds, a process for their preparation and pharmaceutical compositions containing them” (Les Laboratoires Servier, priority 2007, dated 2011).
